Where a SMILES comes first, the peptide text is derived from it. [ ]: non-standard residue; d: D form. The star is where a group is joined. Cbz = O=C(OCc1ccccc1)*
What was measured:
Female ICR-CD-1 mice = experiment: Oral administration of absorption promoter mixed with insulin to mice: decrease in blood glucose and elevation of blood insulin versus control; type: in vivo; parameters: Degree of Elevation of Blood Insulin: unit not given here
Protocol: The absorption promoter samples listed in Table 2 were dissolved or suspended in 0.5% CMC-0.05M tris-HCl buffers (pH: 7.8) and the solutions or suspensions were mixed with aqueous insulin solution. Female ICR-CD-1 mice 5 to 7 weeks old were orally administered predetermined amounts of the mixtures. A predetermined duration later, the percent decrease in blood glucose and the degree of elevation of blood insulin as compared with the control group were measured. The symbol "Z" in the structural formulas in the table represents a benzyloxycarbonyl group. The upper figures in the columns "effectiveness" represent the percent decrease in blood glucose and the lower parenthesized figures indicate the degree of elevation in blood insulin.

Female CD-1(ICR) Mice = experiment: Toxicity studies of phenylalanine derivatives (LD50); type: in vivo
Text: Toxicity Studies of Phenylalanine Derivatives with Oral IN Potentiating Activity in Female CD-1(ICR) Mice are as follows:
Phenylalanine derivatives were suspended in 0.5% CMC.

[1] = oral, mice, sample 3.0 mg/10 g with insulin 2.5 U/10 g body weight, 30 minutes, vs control group
[2] = oral, mice, sample 3.0 mg/10 g with insulin 2.5 U/10 g body weight, 60 minutes, vs control group
[3] = oral, mice, sample 6.0 mg/10 g with insulin 2.5 U/10 g body weight, 30 minutes, vs control group
[4] = oral, mice, sample 6.0 mg/10 g with insulin 2.5 U/10 g body weight, 60 minutes, vs control group
[5] = oral, mice, sample 12.5 mg/10 g with insulin 2.5 U/10 g body weight, 30 minutes, vs control group
[6] = oral, mice, sample 12.5 mg/10 g with insulin 2.5 U/10 g body weight, 60 minutes, vs control group
[7] = oral, mice, sample 3.1 mg/10 g with insulin 2.5 U/10 g body weight, 30 minutes, vs control group
[8] = oral, mice, sample 3.1 mg/10 g with insulin 2.5 U/10 g body weight, 60 minutes, vs control group
[9] = oral, mice, sample 1.5 mg/10 g with insulin 2.5 U/10 g body weight, 30 minutes, vs control group
[10] = oral, mice, sample 1.5 mg/10 g with insulin 2.5 U/10 g body weight, 60 minutes, vs control group

SMILES | Decrease in Blood Glucose (%) (Female ICR-CD-1 mice; [1]) | Decrease in Blood Glucose (%) (Female ICR-CD-1 mice; [2]) | Decrease in Blood Glucose (%) (Female ICR-CD-1 mice; [3]) | Degree of Elevation of Blood Insulin (Female ICR-CD-1 mice; [3]) | Decrease in Blood Glucose (%) (Female ICR-CD-1 mice; [4]) | Degree of Elevation of Blood Insulin (Female ICR-CD-1 mice; [4]) | further results
O=C(NC(Cc1ccc(F)cc1)C(=O)N[C@@H](Cc1ccccc1)C(=O)O)OCc1ccccc1 (mixture of isomers) [Sample S-22, N-benzyloxycarbonyl-4-fluoro-DL-phenylalanyl-L-phenylalanine] | 63.7% | 51.9% | – | – | – | – | –
O=C(N[C@@H](Cc1ccccc1)C(=O)NC(Cc1ccc(F)cc1)C(=O)O)OCc1ccccc1 (mixture of isomers) [Sample S-23, N-benzyloxycarbonyl-L-phenylalanyl-4-fluoro-DL-phenylalanine] | 67.5% | 39.4% | – | – | – | – | –
O=C(COc1ccc([N+](=O)[O-])cc1)NC(Cc1ccc([N+](=O)[O-])cc1)C(=O)O (racemic) [Sample S-2, N-[(4-nitrophenoxy)acetyl]-4-nitro-DL-phenylalanine] | – | – | 23.2% | > 119 | 60.0% | 89.7 | –
Cc1ccc(S(=O)(=O)NC(Cc2ccccc2)C(=O)O)cc1 (racemic) [Sample S-34, N-(4-toluenesulfonyl)-DL-phenylalanine] | – | – | 27.3% | 13.8 | 93.1% | 6.52 | –
O=C(Cc1cccc2ccccc12)N[C@@H](Cc1ccccc1)C(=O)O [Sample S-1, N-[(1-naphthyl)acetyl]-L-phenylalanine] | – | – | 84.9% | 56.4 | 75.4% | 60.0 | –
O=C(C=Cc1ccccc1)N[C@@H](Cc1ccccc1)C(=O)O [Sample S-3, N-cinnamoyl-L-phenylalanine] | – | – | 84.4% | 34.2 | 84.3% | 68.1 | LD50 (mg/kg) (Female CD-1(ICR) Mice; mouse, in vivo): > 2,500 mg/kg
O=C(N[C@@H](Cc1ccc(OC(=O)OCc2ccccc2)cc1)C(=O)O)OCc1ccccc1 [Sample S-4, N,O-bis-(benzyloxycarbonyl)-L-tyrosine] | 52.7% | 31.1% | – | – | – | – | Degree of Elevation of Blood Insulin (Female ICR-CD-1 mice; [1]): 6.54; Degree of Elevation of Blood Insulin (Female ICR-CD-1 mice; [2]): 2.04
O=C(COc1ccccc1)N[C@@H](Cc1ccccc1)C(=O)O [Sample S-5, N-phenoxyacetyl-L-phenylalanine] | – | – | – | – | – | – | Decrease in Blood Glucose (%) (Female ICR-CD-1 mice; [5]): 57.9%; Degree of Elevation of Blood Insulin (Female ICR-CD-1 mice; [5]): 88.5; Decrease in Blood Glucose (%) (Female ICR-CD-1 mice; [6]): 33.5%; Degree of Elevation of Blood Insulin (Female ICR-CD-1 mice; [6]): 18.0; LD50 (mg/kg) (Female CD-1(ICR) Mice; mouse, in vivo): > 4,000 mg/kg
O=C(COc1ccccc1)N[C@@H](Cc1ccc([N+](=O)[O-])cc1)C(=O)O [Sample S-6, N-phenoxyacetyl-4-nitro-L-phenylalanine] | – | – | – | – | – | – | Decrease in Blood Glucose (%) (Female ICR-CD-1 mice; [7]): 21.5%; Degree of Elevation of Blood Insulin (Female ICR-CD-1 mice; [7]): 20.6; Decrease in Blood Glucose (%) (Female ICR-CD-1 mice; [8]): 44.7%; Degree of Elevation of Blood Insulin (Female ICR-CD-1 mice; [8]): 21.8
O=C(N[C@@H](Cc1ccccc1)C(=O)N[C@@H](Cc1ccccc1)C(=O)O)OCc1ccccc1 [Sample S-7, N-benzyloxycarbonyl-L-phenylalanyl-L-phenylalanine] (Cbz-Phe-Phe-OH) | 70.0% | 40.6% | – | – | – | – | Degree of Elevation of Blood Insulin (Female ICR-CD-1 mice; [1]): 7.72; Degree of Elevation of Blood Insulin (Female ICR-CD-1 mice; [2]): 9.35; LD50 (mg/kg) (Female CD-1(ICR) Mice; female CD-1(ICR) mice, suspended in 0.5% CMC): > 3,000 mg/kg
O=C(CCCc1ccccc1)N[C@@H](Cc1ccccc1)C(=O)O [Sample S-8, N-(4-phenylbutyrol)-L-phenylalanine] | – | – | 57.1% | 7.31 | 35.6% | 9.64 | –
O=C(COc1ccccc1)N[C@H](Cc1ccccc1)C(=O)O [Sample S-9, N-phenoxyacetyl-D-phenylalanine] | 37.3% | 29.7% | – | – | – | – | Degree of Elevation of Blood Insulin (Female ICR-CD-1 mice; [1]): 11.8; Degree of Elevation of Blood Insulin (Female ICR-CD-1 mice; [2]): 2.67
O=C(N[C@@H](Cc1ccccc1)C(=O)O)c1ccccc1 [Sample S-14, N-benzoyl-L-phenylalanine] | – | – | 35.2% | 6.31 | 37.8% | 3.31 | –
O=C(N[C@@H](Cc1ccc(O)cc1)C(=O)O)OCc1ccccc1 [Sample S-16, N-benzyloxycarbonyl-L-tyrosine] | – | – | 31.0% | 50.0 | – | 2.99 | Decrease in Blood Glucose (%) (Female ICR-CD-1 mice; po, 6 mg, 1 h): 27.2%
O=C(N[C@H](Cc1ccccc1)C(=O)N[C@@H](Cc1ccccc1)C(=O)O)OCc1ccccc1 [Sample S-20, N-benzyloxycarbonyl-D-phenylalanyl-L-phenylalanine] (Cbz-[dF]-Phe-OH) | – | – | – | – | – | – | Decrease in Blood Glucose (%) (Female ICR-CD-1 mice; [9]): 22.4%; Degree of Elevation of Blood Insulin (Female ICR-CD-1 mice; [9]): 2.33; Decrease in Blood Glucose (%) (Female ICR-CD-1 mice; [10]): 32.7%; Degree of Elevation of Blood Insulin (Female ICR-CD-1 mice; [10]): 2.46
O=C(N[C@@H](Cc1ccccc1)C(=O)N[C@H](Cc1ccccc1)C(=O)O)OCc1ccccc1 [Sample S-21, N-benzyloxycarbonyl-L-phenylalanyl-D-phenylalanine] (Cbz-Phe-[dF]-OH) | – | – | 42.6% | 14.9 | 32.7% | 5.26 | –
O=C(C=Cc1ccc(Cl)cc1)N[C@@H](Cc1ccccc1)C(=O)O [Sample S-24, N-(4-chlorocinnamoyl)-L-phenylalanine] | – | – | – | – | – | – | Decrease in Blood Glucose (%) (Female ICR-CD-1 mice; [9]): 37.1%; Degree of Elevation of Blood Insulin (Female ICR-CD-1 mice; [9]): 5.46; Decrease in Blood Glucose (%) (Female ICR-CD-1 mice; [10]): 27.4%; Degree of Elevation of Blood Insulin (Female ICR-CD-1 mice; [10]): 3.04
O=C(C=Cc1ccc(Cl)cc1)N[C@H](Cc1ccccc1)C(=O)O [Sample S-25, N-(4-chlorocinnamoyl)-D-phenylalanine] | – | – | – | – | – | – | Decrease in Blood Glucose (%) (Female ICR-CD-1 mice; [9]): 34.9%; Decrease in Blood Glucose (%) (Female ICR-CD-1 mice; [10]): 29.5%
Cc1ccc(C=CC(=O)N[C@@H](Cc2ccccc2)C(=O)O)cc1 [Sample S-27, N-(4-methylcinnamoyl)-L-phenylalanine] | – | – | – | – | – | – | Decrease in Blood Glucose (%) (Female ICR-CD-1 mice; [9]): 61.5%; Degree of Elevation of Blood Insulin (Female ICR-CD-1 mice; [9]): 7.76; Decrease in Blood Glucose (%) (Female ICR-CD-1 mice; [10]): 34.4%; Degree of Elevation of Blood Insulin (Female ICR-CD-1 mice; [10]): 1.0
O=C(C=Cc1cccc(C(F)(F)F)c1)N[C@@H](Cc1ccccc1)C(=O)O [Sample S-30, N-(3-trifluoromethylcinnamoyl)-L-phenylalanine] | 48.8% | 44.4% | – | – | – | – | –
O=C(N[C@@H](Cc1ccccc1)C(=O)O)C(F)=Cc1ccccc1 [Sample S-31, N-(α-fluorocinnamoyl)-L-phenylalanine] | 33.5% | 72.5% | – | – | – | – | –
COc1cccc(C=CC(=O)N[C@@H](Cc2ccccc2)C(=O)N[C@@H](Cc2ccccc2)C(=O)O)c1 [Sample S-32, N-(3-methoxycinnamoyl)-L-phenylalanyl-L-phenylalanine] | – | 23.8% | – | – | – | – | Degree of Elevation of Blood Insulin (Female ICR-CD-1 mice; [2]): 4.55
Cc1ccc(S(=O)(=O)N[C@@H](Cc2ccccc2)C(=O)O)cc1 [Sample S-33, N-(4-toluenesulfonyl)-L-phenylalanine] | – | – | 51.6% | 18.1 | 21.4% | 6.48 | –
O=C(C=Cc1cccc(C(F)(F)F)c1)N[C@H](Cc1ccccc1)C(=O)O [Sample S-36, N-(3-trifluoromethylcinnamoyl)-D-phenylalanine] | 52.0% | 49.1% | – | – | – | – | –

From US4650785A, “Pharmaceutical composition having an excellent absorption property” (Ajinomoto Company Incoporated, priority 1982, dated 1987)
